Measured values: ChEMBL document CHEMBL1201862, “PubChem BioAssay data set” (2004)
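Growth conditions: 96-well plates. Treatment: test compound, 48 hours, 5 concentrations. Analysis: linear interpolation between bracketing concentrations; unreached endpoints set to highest concentration. Here, GI50 denotes the concentration required for 50% inhibition of growth.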 Activity calls are given as the source filed them. Rule as the data show it: active = GI50 up to about 1.1 µM and inactive = higher.

Legend:
Experiment in all cases: growth of human tumour cells (NCI), 48 h
[1] = test system: SF-539
[2] = test system: RXF 393
[3] = test system: BT-549
[4] = test system: UO-31
[5] = test system: M14
[6] = test system: NCI-H522
[7] = test system: NCI/ADR-RES
[8] = test system: MDA-MB-231
[9] = test system: Hs-578T
[10] = test system: HCC 2998
[11] = test system: UACC-62
[12] = test system: OVCAR-5
[13] = test system: KM12
[14] = test system: UACC-257
[15] = test system: HCT-116
[16] = test system: Malme-3M
[17] = test system: SF-268
[18] = test system: SK-MEL-28
[19] = test system: IGROV-1
[20] = test system: OVCAR-4

Row | SMILES | GI50 [1] | GI50 [2] | GI50 [3] | GI50 [4] | GI50 [5] | GI50 [6] | GI50 [7] | GI50 [8] | GI50 [9] | GI50 [10] | GI50 [11] | GI50 [12] | GI50 [13] | GI50 [14] | GI50 [15] | GI50 [16] | GI50 [17] | GI50 [18] | GI50 [19] | GI50 [20]
1 | CC(=O)c1ccc(Oc2c3ccccc3nc3ccccc23)cc1 | 2.3 µM (inactive) | 7.91 µM (inactive) | 12.5 µM (inactive) | 3.83 µM (inactive) | 4.35 µM (inactive) | 12.2 µM (inactive) | 11.3 µM (inactive) | 11.6 µM (inactive) | 8.61 µM (inactive) | 9.48 µM (inactive) | 6.41 µM (inactive) | 9.68 µM (inactive) | 7 µM (inactive) | 5.68 µM (inactive) | 2.7 µM (inactive) | 12.6 µM (inactive) | 5.18 µM (inactive) | 14.7 µM (inactive) | 4.89 µM (inactive) | 5.93 µM (inactive)
2 | COc1ccc(OC)c2c1-c1nnnn1CCC2(C)C | > 100 µM (inactive) | > 100 µM (inactive) | > 100 µM (inactive) | > 100 µM (inactive) | > 100 µM (inactive) | > 100 µM (inactive) | > 100 µM (inactive) | > 100 µM (inactive) | > 100 µM (inactive) | > 100 µM (inactive) | > 100 µM (inactive) | > 100 µM (inactive) | > 100 µM (inactive) | > 100 µM (inactive) | > 100 µM (inactive) | > 100 µM (inactive) | > 100 µM (inactive) | > 100 µM (inactive) | > 100 µM (inactive) | > 100 µM (inactive)
3 | COc1ccccc1/C=C1\Sc2scc(-c3cccc([N+](=O)[O-])c3)[n+]2C1=O | 1.62 µM (inactive) | 4.58 µM (inactive) | 2.55 µM (inactive) | 2.86 µM (inactive) | 3.93 µM (inactive) | 1.34 µM (inactive) | 6.84 µM (inactive) | 5.04 µM (inactive) | 18.5 µM (inactive) | 10.4 µM (inactive) | 8.51 µM (inactive) | 15.6 µM (inactive) | 10.8 µM (inactive) | 7.11 µM (inactive) | 4.69 µM (inactive) | 3.3 µM (inactive) | 4.78 µM (inactive) | 15 µM (inactive) | 7.46 µM (inactive) | 13.3 µM (inactive)
4 | c1ccc2c(c1)cc1n2CCc2c-1[nH]c1ccccc21 | > 10 µM (inactive) | > 10 µM (inactive) | > 10 µM (inactive) | > 10 µM (inactive) | > 10 µM (inactive) | > 10 µM (inactive) | > 10 µM (inactive) | > 10 µM (inactive) | > 10 µM (inactive) | > 10 µM (inactive) | > 10 µM (inactive) | > 10 µM (inactive) | > 10 µM (inactive) | > 10 µM (inactive) | > 10 µM (inactive) | > 10 µM (inactive) | > 10 µM (inactive) | > 10 µM (inactive) | > 10 µM (inactive) | > 10 µM (inactive)
5 | O=C(NC1(C(=O)O)CC1c1ccccc1)c1ccccc1 (stereo not given) | > 100 µM (inactive) | > 100 µM (inactive) | > 100 µM (inactive) | > 100 µM (inactive) | > 100 µM (inactive) | > 100 µM (inactive) | > 100 µM (inactive) | > 100 µM (inactive) | > 100 µM (inactive) | > 100 µM (inactive) | > 100 µM (inactive) | > 100 µM (inactive) | > 100 µM (inactive) | > 100 µM (inactive) | > 100 µM (inactive) | > 100 µM (inactive) | > 100 µM (inactive) | > 100 µM (inactive) | > 100 µM (inactive) | > 100 µM (inactive)
6 | COC(O)C12OC3CO[Si](C(C)C)(C(C)C)O[Si](C(C)C)(C(C)C)OC3C1Oc1nc(=O)ccn12 (stereo not given) | 15.7 µM (inactive) | 11.9 µM (inactive) | 15.5 µM (inactive) | 15.8 µM (inactive) | 12.7 µM (inactive) | 4.88 µM (inactive) | 21.6 µM (inactive) | 17.1 µM (inactive) | 2.67 µM (inactive) | 3.94 µM (inactive) | 11 µM (inactive) | 15.7 µM (inactive) | 5.61 µM (inactive) | 11.8 µM (inactive) | 8.61 µM (inactive) | 13.1 µM (inactive) | 9.91 µM (inactive) | > 100 µM (inactive) | 12.3 µM (inactive) | 14.2 µM (inactive)
7 | CCOP(=O)(OCC)/C(C#N)=C/c1ccc(-c2ccc(F)cc2F)o1 | 20.7 µM (inactive) | 29 µM (inactive) | 11.7 µM (inactive) | 13.1 µM (inactive) | 17.2 µM (inactive) | 15.3 µM (inactive) | 22.1 µM (inactive) | 16.7 µM (inactive) | > 10 µM (inactive) | 14 µM (inactive) | 11.3 µM (inactive) | 17.3 µM (inactive) | 16 µM (inactive) | 13.3 µM (inactive) | 17.4 µM (inactive) | 18.4 µM (inactive) | 17.3 µM (inactive) | 14.8 µM (inactive) | 13.9 µM (inactive) | 18.2 µM (inactive)
8 | CCOC(=O)c1c(CN2CCNCC2)nc2ccccc2c1-c1ccccc1 | 16.8 µM (inactive) | 2.92 µM (inactive) | 17.2 µM (inactive) | 7.28 µM (inactive) | 13.4 µM (inactive) | 14.3 µM (inactive) | 16.2 µM (inactive) | 15.6 µM (inactive) | 16.1 µM (inactive) | 1.9 µM (inactive) | 15 µM (inactive) | 16.8 µM (inactive) | 15.6 µM (inactive) | 4.07 µM (inactive) | 11.4 µM (inactive) | 10.2 µM (inactive) | 14 µM (inactive) | 11.7 µM (inactive) | 15.3 µM (inactive) | 15 µM (inactive)
9 | CC1=CC(C)C/C=C/C2C3OC3(C)C(C)C3C(Cc4c[nH]c5ccccc45)NC(=O)C23C(=O)C=CC(=O)C1O (stereo not given) | 6.97 µM (inactive) | 1.38 µM (inactive) | 4.56 µM (inactive) | 1.96 µM (inactive) | 3.57 µM (inactive) | 1.4 µM (inactive) | 24.3 µM (inactive) | 4.67 µM (inactive) | 3.72 µM (inactive) | 2.6 µM (inactive) | 15.2 µM (inactive) | 12.5 µM (inactive) | 15.2 µM (inactive) | 6.27 µM (inactive) | 2.95 µM (inactive) | 1.56 µM (inactive) | 15.1 µM (inactive) | 14.7 µM (inactive) | 11.1 µM (inactive) | 11.8 µM (inactive)
10 | CC(=O)Oc1c(-c2ccccc2)sc2ccccc12 | 20.6 µM (inactive) | 13.6 µM (inactive) | 21.4 µM (inactive) | 16.8 µM (inactive) | > 10 µM (inactive) | 19 µM (inactive) | 18.2 µM (inactive) | 14 µM (inactive) | 19.6 µM (inactive) | 17.1 µM (inactive) | 15.7 µM (inactive) | 29.2 µM (inactive) | 18.4 µM (inactive) | 12.5 µM (inactive) | 13.4 µM (inactive) | 18.2 µM (inactive) | 23 µM (inactive) | 21.3 µM (inactive) | 15.3 µM (inactive) | 23 µM (inactive)
11 | O=C1c2cccc3cccc(c23)C(=O)N1CCCNCCCCNCCCN1C(=O)c2cccc3cccc(c23)C1=O | 0.0843 µM (active) | 0.0933 µM (active) | 1.25 µM (inactive) | 2.26 µM (inactive) | 0.604 µM (active) | < 0.0112 µM (active) | 14.5 µM (inactive) | 0.137 µM (active) | 0.0401 µM (active) | 0.0755 µM (active) | 0.337 µM (active) | 0.316 µM (active) | 0.108 µM (active) | 0.61 µM (active) | 0.0738 µM (active) | 0.144 µM (active) | 0.025 µM (active) | 0.238 µM (active) | 0.0697 µM (active) | 0.2 µM (active)
12 | C[C@]12CCC(=O)C=C1CC[C@@H]1[C@@H]2CC[C@]2(C)C(=O)/C(=C/c3ccncc3)C[C@@H]12 | 7.4 µM (inactive) | 15.6 µM (inactive) | 19.2 µM (inactive) | 12.6 µM (inactive) | 14.6 µM (inactive) | 15.3 µM (inactive) | 26.2 µM (inactive) | 15.2 µM (inactive) | 29.8 µM (inactive) | 16.7 µM (inactive) | 12.7 µM (inactive) | 16.9 µM (inactive) | 13.4 µM (inactive) | 13.4 µM (inactive) | 10.6 µM (inactive) | 15.7 µM (inactive) | 18.8 µM (inactive) | 20 µM (inactive) | 21.2 µM (inactive) | 17.2 µM (inactive)
13 | O=C1C(Cl)=C(Cl)C(=O)C2=C1C1c3ccccc3C2c2ccccc21 | 31.3 µM (inactive) | 30.8 µM (inactive) | 14.8 µM (inactive) | 47.6 µM (inactive) | 62.7 µM (inactive) | 18.7 µM (inactive) | 94.8 µM (inactive) | 31.1 µM (inactive) | 39.4 µM (inactive) | 63.8 µM (inactive) | 30.5 µM (inactive) | > 100 µM (inactive) | 59 µM (inactive) | > 100 µM (inactive) | 55.3 µM (inactive) | 24 µM (inactive) | > 100 µM (inactive) | 38.7 µM (inactive) | > 100 µM (inactive) | 34.3 µM (inactive)
14 | Cc1ccc(OCCn2cc(Nc3ccccc3)c(=O)[nH]c2=O)cc1 | > 100 µM (inactive) | > 100 µM (inactive) | > 100 µM (inactive) | > 100 µM (inactive) | > 100 µM (inactive) | > 100 µM (inactive) | > 100 µM (inactive) | > 100 µM (inactive) | 22.1 µM (inactive) | > 100 µM (inactive) | > 100 µM (inactive) | > 100 µM (inactive) | > 100 µM (inactive) | > 100 µM (inactive) | > 100 µM (inactive) | > 100 µM (inactive) | > 100 µM (inactive) | > 100 µM (inactive) | > 100 µM (inactive) | > 100 µM (inactive)
